Structures can show the parent of a compound that is named as a salt.
Legend:
[1] = Determination of the microsomal half-life / microsomal clearance, rat liver microsomes; assay type: in vitro ADME; settings: 0.5 μM test substance, 0.25 mg of microsomal protein/mL, NADPH, 37° C.
Method: (§1) b) Determination of the Microsomal Half-Life:
(§2) The metabolic stability of the compounds of the invention was determined in the following assay.
(§3) The test substances were incubated in a concentration of 0.5 μM as follows:
(§4) 0.5 μM test substance are preincubated together with liver microsomes from different species (from rat, human or other species) (0.25 mg of microsomal protein/mL) in 0.05 M potassium phosphate buffer of pH 7.4 in microtiter plates at 37° C. for 5 min. The reaction is started by adding NADPH (1 mg/mL). After 0, 5, 10, 15, 20 and 30 min, 50 μl aliquots are removed, and the reaction is immediately stopped and cooled with the same volume of acetonitrile. The samples are frozen until analyzed. The remaining concentration of undegraded test substance is determined by MSMS. The half-life (T½) is determined from the gradient of the signal of test substance/unit time plot, it being possible to calculate the half-life of the test substance, assuming first order kinetics, from the decrease in the concentration of the compound with time. The microsomal clearance (mCl) is calculated from mCl=ln 2/T½/(content of microsomal protein in mg/mL)×1000 [mL/min/mg] (modified from references: Di, The Society for Biomoleculur Screening, 2003, 453-462; Obach, DMD, 1999 vol 27. N 11, 1350-1359).

[2] = Determination of the microsomal half-life / microsomal clearance, human liver microsomes; assay type: in vitro ADME; settings: 0.5 μM test substance, 0.25 mg of microsomal protein/mL, NADPH, 37° C.
Method: as §1, §2, §3, §4

| Structure (SMILES) | Rat mCl [1] | Human mCl [2] |
| --- | --- | --- |
| Cn1nc(-c2ccncc2)c2scc(-c3csc4ccccc34)c2c1=O.O=C(O)C(F)(F)F [Example 26, 3-(1-benzothiophen-3-yl)-5-methyl-7-(pyridin-4-yl)thieno[2,3-d]pyridazin-4(5H)-one trifluoroacetate] | ∘ (∘ not avialable or >220 μl min^−1 mg^−1) | + (+: 100-220 μl min^−1 mg^−1) |
| Cn1nc(-c2ccncc2)c2scc(-c3ccc(F)nc3)c2c1=O.O=C(O)C(F)(F)F.O=C(O)C(F)(F)F [Example 27, 3-(6-fluoropyridin-3-yl)-5-methyl-7-(pyridin-4-yl)thieno[2,3-d]pyridazin-4(5H)-one bis(trifluoroacetate)] | ++ (++: <100 μl min^−1 mg^−1) | ++ (++: <100 μl min^−1 mg^−1) |
| COc1cccc(-c2csc3c(-c4ccncc4)nn(C)c(=O)c23)c1.O=C(O)C(F)(F)F [Example 30, 3-(3-methoxyphenyl)-5-methyl-7-(pyridin-4-yl)thieno[2,3-d]pyridazin-4(5H)-one trifluoroacetate] | + (+: 100-220 μl min^−1 mg^−1) | + (+: 100-220 μl min^−1 mg^−1) |
| Cn1nc(-c2ccncc2)c2scc(-c3cccc(F)c3)c2c1=O.O=C(O)C(F)(F)F [Example 31, 3-(3-fluorophenyl)-5-methyl-7-(pyridin-4-yl)thieno[2,3-d]pyridazin-4(5H)-one trifluoroacetate] | ++ (++: <100 μl min^−1 mg^−1) | + (+: 100-220 μl min^−1 mg^−1) |
| Cn1nc(-c2ccncc2)c2scc(-c3cccc(C(=O)N4CCOCC4)c3)c2c1=O [Example 32, 5-methyl-3-[3-(morpholin-4-ylcarbonyl)phenyl]-7-(pyridin-4-yl)thieno[2,3-d]pyridazin-4(5H)-one trifluoroacetate] | ++ (++: <100 μl min^−1 mg^−1) | ++ (++: <100 μl min^−1 mg^−1) |
| Cn1nc(-c2ccncc2)c2scc(-c3ccc(NS(C)(=O)=O)cc3)c2c1=O.O=C(O)C(F)(F)F [Example 33, N-{4-[5-methyl-4-oxo-7-(pyridin-4-yl)-4,5-dihydrothieno[2,3-d]pyridazin-3-yl]phenyl}methanesulfonamide trifluoroacetate] | ∘ (∘ not avialable or >220 μl min^−1 mg^−1) | ++ (++: <100 μl min^−1 mg^−1) |
| Cn1nc(-c2ccncc2)c2scc(-c3ccsc3)c2c1=O.O=C(O)C(F)(F)F [Example 34, 5-methyl-7-(pyridin-4-yl)-3-(thiophen-3-yl)thieno[2,3-d]pyridazin-4(5H)-one trifluoroacetate] | + (+: 100-220 μl min^−1 mg^−1) | ++ (++: <100 μl min^−1 mg^−1) |
| Cn1nc(-c2ccncc2)c2scc(-c3ccc4c(c3)CCO4)c2c1=O.O=C(O)C(F)(F)F [Example 35, 3-(2,3-dihydro-1-benzofuran-5-yl)-5-methyl-7-(pyridin-4-yl)thieno[2,3-d]pyridazin-4(5H)-one trifluoroacetate] | + (+: 100-220 μl min^−1 mg^−1) | + (+: 100-220 μl min^−1 mg^−1) |
| Cn1nc(-c2ccncc2)c2scc(-c3ccccc3F)c2c1=O.O=C(O)C(F)(F)F [Example 36, 3-(2-fluorophenyl)-5-methyl-7-(pyridin-4-yl)thieno[2,3-d]pyridazin-4(5H)-one trifluoroacetate] | ++ (++: <100 μl min^−1 mg^−1) | ++ (++: <100 μl min^−1 mg^−1) |
| Cn1cc(-c2csc3c(-c4ccncc4)nn(C)c(=O)c23)cn1.O=C(O)C(F)(F)F [Example 37, 5-methyl-3-(1-methyl-1H-pyrazol-4-yl)-7-(pyridin-4-yl)thieno[2,3-d]pyridazin-4(5H)-one trifluoroacetate] | + (+: 100-220 μl min^−1 mg^−1) | ++ (++: <100 μl min^−1 mg^−1) |
| COc1ccccc1-c1csc2c(-c3ccncc3)nn(C)c(=O)c12.O=C(O)C(F)(F)F [Example 39, 3-(2-methoxyphenyl)-5-methyl-7-(pyridin-4-yl)thieno[2,3-d]pyridazin-4(5H)-one trifluoroacetate] | ++ (++: <100 μl min^−1 mg^−1) | ++ (++: <100 μl min^−1 mg^−1) |
| Cn1nc(-c2ccncc2)c2scc(-c3ccc(C(=O)NC4CC4)cc3)c2c1=O.O=C(O)C(F)(F)F [Example 40, N-cyclopropyl-4-[5-methyl-4-oxo-7-(pyridin-4-yl)-4,5-dihydrothieno[2,3-d]pyridazin-3-yl]benzamide trifluoroacetate] | ++ (++: <100 μl min^−1 mg^−1) | ++ (++: <100 μl min^−1 mg^−1) |
| Cn1nc(-c2ccncc2)c2scc(-c3cnn(Cc4ccccc4)c3)c2c1=O.O=C(O)C(F)(F)F.O=C(O)C(F)(F)F [Example 41, 3-(1-benzyl-1H-pyrazol-4-yl)-5-methyl-7-(pyridin-4-yl)thieno[2,3-d]pyridazin-4(5H)-one bis(trifluoroacetate)] | ++ (++: <100 μl min^−1 mg^−1) | + (+: 100-220 μl min^−1 mg^−1) |
| CN1CCN(Cc2cccc(-c3csc4c(-c5ccncc5)nn(C)c(=O)c34)c2)CC1.O=C(O)C(F)(F)F.O=C(O)C(F)(F)F.O=C(O)C(F)(F)F [Example 42, 5-methyl-3-{3-[(4-methylpiperazin-1-yl)methyl]phenyl}-7-(pyridin-4-yl)thieno[2,3-d]pyridazin-4(5H)-one tris(trifluoroacetate)] | ++ (++: <100 μl min^−1 mg^−1) | + (+: 100-220 μl min^−1 mg^−1) |
| CN1CCN(Cc2ccc(-c3csc4c(-c5ccncc5)nn(C)c(=O)c34)cc2)CC1.O=C(O)C(F)(F)F.O=C(O)C(F)(F)F.O=C(O)C(F)(F)F [Example 43, 5-methyl-3-{4-[(4-methylpiperazin-1-yl)methyl]phenyl}-7-(pyridin-4-yl)thieno[2,3-d]pyridazin-4(5H)-one tris(trifluoroacetate)] | ++ (++: <100 μl min^−1 mg^−1) | ++ (++: <100 μl min^−1 mg^−1) |
| Cn1nc(N2CCCCC2)c2scc(-c3ccncc3)c2c1=O [Example 47, 5-methyl-7-(piperidin-1-yl)-3-(pyridin-4-yl)thieno[2,3-d]pyridazin-4(5H)-one] | + (+: 100-220 μl min^−1 mg^−1) | + (+: 100-220 μl min^−1 mg^−1) |
| CN1CCN(c2nn(C)c(=O)c3c(-c4ccncc4)csc23)CC1 [Example 49, 5-methyl-7-(4-methylpiperazin-1-yl)-3-(pyridin-4-yl)thieno[2,3-d]pyridazin-4(5H)-one] | ++ (++: <100 μl min^−1 mg^−1) | ++ (++: <100 μl min^−1 mg^−1) |
| Cn1nc(OC2CCCCC2)c2scc(-c3ccncc3)c2c1=O.O=C(O)C(F)(F)F [Example 53, 7-(cyclohexyloxy)-5-methyl-3-(pyridin-4-yl)thieno[2,3-d]pyridazin-4(5H)-one trifluoroacetate] | + (+: 100-220 μl min^−1 mg^−1) | ++ (++: <100 μl min^−1 mg^−1) |
| Cn1nc(OCC2CCCCC2)c2scc(-c3ccncc3)c2c1=O [Example 57, 7-(cyclohexylmethoxy)-5-methyl-3-(pyridin-4-yl)thieno[2,3-d]pyridazin-4(5H)-one] | + (+: 100-220 μl min^−1 mg^−1) | + (+: 100-220 μl min^−1 mg^−1) |
| CC(C)c1cccc(COc2nn(C)c(=O)c3c(-c4ccncc4)csc23)c1.O=C(O)C(F)(F)F [Example 65, 5-methyl-7-{[3-(propan-2-yl)benzyl]oxy}-3-(pyridin-4-yl)thieno[2,3-d]pyridazin-4(5H)-one trifluoroacetate] | + (+: 100-220 μl min^−1 mg^−1) | ∘ (∘ not avialable or >220 μl min^−1 mg^−1) |
| Cn1nc(OCC2CCC(F)(F)CC2)c2scc(-c3ccncc3)c2c1=O [Example 66, 7-[(4,4-difluorocyclohexyl)methoxy]-5-methyl-3-(pyridin-4-yl)thieno[2,3-d]pyridazin-4(5H)-one] | ++ (++: <100 μl min^−1 mg^−1) | ++ (++: <100 μl min^−1 mg^−1) |
| Cn1nc(OCc2ccc(Cl)c(Cl)c2)c2scc(-c3ccncc3)c2c1=O [Example 77, 7-[(3,4-dichlorobenzyl)oxy]-5-methyl-3-(pyridin-4-yl)thieno[2,3-d]pyridazin-4(5H)-one] | ++ (++: <100 μl min^−1 mg^−1) | + (+: 100-220 μl min^−1 mg^−1) |
| Cn1nc(OCC2CCN(C(=O)OC(C)(C)C)CC2)c2scc(-c3ccncc3)c2c1=O [Example 79, tert-butyl 4-({[5-methyl-4-oxo-3-(pyridin-4-yl)-4,5-dihydrothieno[2,3-d]pyridazin-7-yl]oxy}methyl)piperidine-1-carboxylate] | + (+: 100-220 μl min^−1 mg^−1) | + (+: 100-220 μl min^−1 mg^−1) |
| Cn1nc(OCc2ccc3c(c2)CN(C(=O)OC(C)(C)C)C3)c2scc(-c3ccncc3)c2c1=O [Example 80, tert-butyl 5-({[5-methyl-4-oxo-3-(pyridin-4-yl)-4,5-dihydrothieno[2,3-d]pyridazin-7-yl]oxy}methyl)-1,3-dihydro-2H-isoindole-2-carboxylate] | ++ (++: <100 μl min^−1 mg^−1) | ++ (++: <100 μl min^−1 mg^−1) |
| Cn1nc(-c2ccccc2C(N)=O)c2scc(-c3ccncc3)c2c1=O [Example 98, 2-[5-methyl-4-oxo-3-(pyridin-4-yl)-4,5-dihydrothieno[2,3-d]pyridazin-7-yl]benzamide] | ++ (++: <100 μl min^−1 mg^−1) | ++ (++: <100 μl min^−1 mg^−1) |

Reference: US9200005B2, “Inhibitor compounds of phosphodiesterase type 10A” (AbbVie Deutschland GmbH & Co. KG, priority 2013, dated 2015)
